Results as given in patent US20140094413A1, “HEPATOCYTE GROWTH FACTOR (HGF) MIMICS AS THERAPEUTIC AGENTS” (WASHINGTON STATE UNIVERSITY, priority 2012, published 2014).
“And” between values parts separate entries of the source, which are not always exact repeats. Equal values may be shown once. “Also recorded” adds a separate entry of the source. Read-outs that look alike come from different tables or passages of the source. Where a SMILES comes first, the peptide text is derived from it. [ ]: non-standard residue; d: D form. dNle = CCCC[C@@H](N)C(=O)O; Ahx = NCCCCCC(=O)O

What was measured:
MDCK cells [1] = experiment: HGF-dependent MDCK cell proliferation (MTT); format: cell-based, canine; details: analogs at 10^−10M, HGF 10 ng/ml, 4 days
Experimental: 5000 MDCK cells were seeded into the wells of a 96 well plates in 10% FBS DMEM. To induce cellular quiescence, the cells were serum deprived for 24 h prior to initiating the treatments. Following serum starvation, 10 ng/ml HGF alone and with various concentrations of 6-AH analogs or PBS vehicle were added to the media. The cells were allowed to grow under these conditions for 4 days with a daily addition of 6-AH analogs. On the fourth day, 1 mg/ml of […] (MTT, Sigma-Aldrich) prepared in PBS was added to the cells and incubated for 4 h. Dimethyl sulfoxide diluted in a 0.01M glycine buffer was added to solubilize the cell membranes and the absorbance of reduced MTT in the buffer was quantitated at 590 nm using a plate reader (Biotek Synergy 2, Winooski, Vt.). HGF-dependent proliferation was determined by subtracting the basal proliferation (in the absence of HGF) from total proliferation rates in groups containing HGF.

human HGF [2] = target: T1, human HGF (Homo sapiens, UniProt P14210); experiment: HGF binding, competition with 3H-Hinge; details: 1.25 ng HGF, 40 min at 37° C.; N=9
T1 construct: purchased R&D Systems (Minneapolis, Minn.)
T1 sequence (P14210 32-728): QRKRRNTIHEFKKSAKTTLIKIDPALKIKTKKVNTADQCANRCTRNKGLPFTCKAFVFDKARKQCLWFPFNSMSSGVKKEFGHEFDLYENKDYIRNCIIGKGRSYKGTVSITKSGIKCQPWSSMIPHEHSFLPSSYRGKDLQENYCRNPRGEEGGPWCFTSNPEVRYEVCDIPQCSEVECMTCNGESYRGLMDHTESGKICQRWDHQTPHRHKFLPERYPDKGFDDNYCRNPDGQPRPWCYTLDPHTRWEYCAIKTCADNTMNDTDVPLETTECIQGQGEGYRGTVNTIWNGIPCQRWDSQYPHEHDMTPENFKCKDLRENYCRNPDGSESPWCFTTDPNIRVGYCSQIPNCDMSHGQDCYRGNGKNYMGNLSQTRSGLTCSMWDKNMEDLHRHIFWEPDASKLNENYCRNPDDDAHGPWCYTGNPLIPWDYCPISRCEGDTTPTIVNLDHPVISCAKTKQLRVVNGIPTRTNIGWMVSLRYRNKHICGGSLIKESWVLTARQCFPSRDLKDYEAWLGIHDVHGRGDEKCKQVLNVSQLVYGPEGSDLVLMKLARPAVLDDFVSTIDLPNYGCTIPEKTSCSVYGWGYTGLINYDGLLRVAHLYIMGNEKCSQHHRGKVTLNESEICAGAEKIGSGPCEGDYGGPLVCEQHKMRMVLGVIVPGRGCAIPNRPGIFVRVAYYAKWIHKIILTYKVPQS
Experimental: The binding of 6-AH analogs to HGF was assessed by competition using a soluble binding assay. 250 μl of PBS containing human HGF (1.25 ng) were incubated with ^3H-Hinge, the central dimerization domain of HGF, in the presence of varying concentrations of 6-AH analogs between 10^−13 M to 10^−7M (half-log dilutions) for 40 min at 37° C. The incubates were then spun through Bio-Gel P6 spin columns (400 μl packed volume) for 1 min to separate free and bound ^3H-Hinge and the eluent was collected. Five milliliters of scintillation fluid was added to the eluent, which contained the HGF bound ^3H-Hinge, and was then counted using scintillation counter. Total disintegrations per minute of bound ^3H-Hinge were calculated based on machine counting efficiency. The Ki values for the binding of the peptides were determined using the Prism 5. Competition binding curves were performed in triplicate.

[3] = tested on: B16-F10 murine melanoma cells; experiment: B16-F10 melanoma lung colony formation; format: in vivo, mouse; details: C57BL/6 mice, daily IP 10 μg/kg/day or 100 μg/kg/day, 14 days
Experimental: Six to eight month old C57BL/6 mice were injected with 400,000 B16-F10 cells in 200 μl PBS by tail vein injection and subsequently received daily intraperitoneal injections of either D-Nle-X-Cys-NH—(CH2)5—CONH2 ([…]) or a PBS vehicle control. Two weeks later, mice were anesthetized and lungs were perfused with PBS and removed. Photos were taken and lungs were solubilized in 1% Triton x-100, 20 mM Tris, 0.15 M NaCl, 2 mM EDTA, and 0.02% sodium azide. Samples were disrupted by sonication (Mixonix, Farmingdale, N.Y.) and spun. The supernatant was transferred to a 96 well plate and melanin absorbance at 410 nm was measured using a plate reader.

Met = experiment: Inhibition of HGF-dependent Met phosphorylation in HEK293 cells; format: cell-based, human; details: 10 min with HGF+/− analog
Experimental: HEK293 cells were seeded in 6 well tissue culture plates and grown to 95% confluency in DMEM containing 10% FBS. The cells were serum deprived for 24 h prior to the treatment to reduce the basal levels of phospho-Met. Following serum starvation, cocktails comprised of vehicle and HGF with/without 6-AH analogs were prepared and pre-incubated for 30 min at room temperature. The cocktail was then added to the cells for 10 min to stimulate the Met receptor and downstream proteins. Cells were harvested using RIPA lysis buffer (Millipore; Billerica, Mass.) fortified with phosphatase inhibitor cocktails 1 and 2 (Sigma-Aldrich; St. Louis, Mo.). The lysate was clarified by centrifugation at 15,000 nx g for 15 min, protein concentrations were determined using the BCA total protein assay (Pierce), and then appropriate volumes of the lysates were diluted with 2× reducing Laemmli buffer and heated for ten min at 95° C. Samples containing identical amounts of protein were resolved using SDS-PAGE (Criterion, BioRad Laboratories), transferred to nitrocellulose, and blocked in Tris-buffered saline (TBS) containing 5% milk for 1 h at room temperature. The phospho-Met antibody were added to the blocking buffer at a final concentration of 1:1000 and incubated at 4° C. overnight with gentle agitation. The membranes were then washed several times with water and TBS ([…], 0.05% Tween-20), a 1:5000 dilution of horseradish-peroxidase conjugated goat anti-rabbit antiserum was added, and the membranes further incubated for 1 h at room temperature. Proteins were visualized using the Supersignal West Pico Chemiluminescent Substrate system (Pierce, Fenton, Mo.) and molecular weights determined by comparison to protein ladders (BenchMark, Invitrogen, and Kaleidoscope, BioRad). Film images were digitized and analyzed using a UVP phosphoimager.

MDCK cells [4] = experiment: Inhibition of HGF-dependent scattering in MDCK cells; format: cell-based, canine; details: HGF 20 ng/ml, 48 h
Experimental: MDCK cells were grown to 100% confluency on the coverslips in six-well plates and washed twice with PBS. The confluent coverslips were then aseptically transferred to new six well plates containing 900 μl serum free DMEM. Norleual, Hinge peptide, and/or HGF (20 ng/ml) were added to appropriate wells. Control wells received PBS vehicle. Plates were incubated at 37° C. with 5% CO2 for 48 h. Media was removed and cells were fixed with methanol. Cells were stained with Diff-Quik Wright-Giemsa (Dade-Behring, Newark, Del.) and digital images were taken. Coverslips were removed with forceps and more digital images were captured. Pixel quantification of images was achieved using Image J and statistics were performed using Prism 5 and InStat v.3.05 (GraphPad; San Diego, Calif.).

human HGF [5] = target: T1, human HGF; experiment: HGF dimerization; format: biochemical; details: analogs at 10^−10 M, heparin, 30 minute incubation
Experimental: HGF dimerization was assessed using PAGE followed by silver staining (Kawas et al., 2011). Human HGF at a concentration of 0.08 ng/μl with or without 6-AH analogs was incubated with heparin at a final concentration of 5 μg/ml. Loading buffer was then added to each sample and the mixture separated by native PAGE using gradient Criterion XT precast gels (4-12% Bis-Tris; Biorad Laboratories, Hercules, Calif.). Next the gel was silver stained for the detection of the HGF monomers and dimers. Bands were quantitated from digital images using a UVP phosphoimager (Upland, Calif.).

Microsomal metabolism = format: in vitro ADME, rat; details: over 90 min; data not shown
Blood stability studies = details: heparinized rat blood, 37° C.; single phase exponential decay
[6] = rat
[7] = rat; remark: listed apart in the source

Ki (human HGF [2])	Inhibition of HGF dimerization (human HGF [5])	Phase I metabolism in rat liver microsomes (Microsomal metabolism)	Stability t1/2 in blood (Blood stability studies)	Total recovery from serum ([6]; in vivo)	AUC(0-inf) ([6]; in vivo, iv, 24 mg/kg)	C0 ([6]; in vivo, iv, 24 mg/kg)	KE (rate of elimination) ([6]; in vivo, iv, 24 mg/kg)	Vd ([6]; in vivo, iv, 24 mg/kg)	clearance ([6]; in vivo, iv, 24 mg/kg)	t1/2 (in vivo elimination half-life) ([6]; iv, 24 mg/kg)	Stability t1/2 in blood [7]	SMILES	Inhibition of HGF-dependent MDCK cell proliferation (MDCK cells [1])	Inhibition of B16-F10 melanoma lung colonization [3]	Inhibition of B16-F10 melanoma lung colonization ([3]; listed as D-Nle-Cys-Ile-(6)-amino-hexanoic amide)	Inhibition of HGF-dependent Met phosphorylation (Met)	Inhibition of HGF-dependent MDCK cell scattering (MDCK cells [4])	Inhibition of HGF dimerization (human HGF [5]; listed as Cys)	Inhibition of HGF dimerization (human HGF [5]; listed as Tyr)
0.133 nM	completely block HGF dimer formation											CCCC[C@@H](N)C(=O)N[C@@H](CS)C(=O)N[C@H](C(=O)NCCCCCC(N)=O)[C@@H](C)CC [D-Nle-Cys-Ile-NH—(CH2)5—CONH2] (H-[dNle]CI[Ahx]-NH2)	marked inhibitory activity	suppressed pulmonary colonization; also recorded: radically prevented lung colonization	obvious reduction in melanoma colonies	able to block Met auto-phosphorylation	different from the HGF alone group but not different from the control group	statistically different than the HGF treated group	
0.243 nM	completely block HGF dimer formation	no detectable metabolism	1.33 h and 1.333 h	greater than 35%	11500 ng·h/mL	68.2 ± 32.2 µg/mL	0.001 ± 0.0002 min − 1	104 ± 65 L/kg	58.3 ± 15.6 mL/min/kg	16.87 h		CCCC[C@@H](N)C(=O)N[C@@H](Cc1ccc(O)cc1)C(=O)N[C@H](C(=O)NCCCCCC(N)=O)[C@@H](C)CC (H-[dNle]YI[Ahx]-NH2)	marked inhibitory activity			able to block Met auto-phosphorylation	different from the HGF alone group but not different from the control group		statistically different than the HGF treated group
											4.6 min	CCCC[C@H](N)C(=O)N[C@@H](Cc1ccc(O)cc1)C(=O)N[C@H](CN[C@@H](Cc1c[nH]cn1)C(=O)N1CCC[C@H]1C(=O)N[C@@H](Cc1ccccc1)C(=O)O)CC(C)C [Norleual, Nle-Tyr-Leu-Ψ-(CH2—NH2)^3-4-His-Pro-Phe]							
